The source made the active and inactive calls. The rule behind the calls is not given here.
Each compound was assayed against T1, Adenosine receptor A3 (Homo sapiens, UniProt P0DMS8) (assay: Binding affinity to adenosine A3 receptor). Settings: not given.
T1 sequence (P0DMS8 whole entry): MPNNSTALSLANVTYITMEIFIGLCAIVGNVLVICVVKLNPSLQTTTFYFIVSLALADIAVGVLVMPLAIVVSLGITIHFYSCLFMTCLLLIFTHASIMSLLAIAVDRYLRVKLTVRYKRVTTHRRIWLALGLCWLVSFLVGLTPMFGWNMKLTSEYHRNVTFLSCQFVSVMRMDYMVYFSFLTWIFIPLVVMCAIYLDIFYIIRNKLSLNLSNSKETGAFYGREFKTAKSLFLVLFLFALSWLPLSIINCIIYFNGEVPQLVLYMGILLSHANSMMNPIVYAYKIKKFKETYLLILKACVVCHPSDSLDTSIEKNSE

| Structure (SMILES) | Ki |
| --- | --- |
| CC1(C)CC(Nc2ncnc3c2ncn3[C@@H]2O[C@H](CO)[C@@H](O)[C@H]2O)CC(C)(C)N1[O] | 8560 nM |
| CC1(C)c2ccc(C(=O)NCCc3ccc(Nc4ncnc5c4ncn5[C@@H]4O[C@H](CO)[C@@H](O)[C@H]4O)cc3)cc2C(C)(C)N1[O] | 230 nM |
| CC1(C)CC(CNc2ncnc3c2ncn3[C@@H]2O[C@H](CO)[C@@H](O)[C@H]2O)C(C)(C)N1[O] (stereo not given in full) | 21200 nM |
| CC1(C)CC(Nc2ncnc3c2ncn3[C@@H]2O[C@H](CO)[C@@H](O)[C@H]2O)CC(C)(C)N1 | 25000 nM |
| CC1(C)c2ccc(Nc3ncnc4c3ncn4[C@@H]3O[C@H](CO)[C@@H](O)[C@H]3O)cc2C(C)(C)N1[O] | 790 nM |
| CC1(C)c2ccc(C(=O)NCCCCCCNc3ncnc4c3ncn4[C@@H]3O[C@H](CO)[C@@H](O)[C@H]3O)cc2C(C)(C)N1[O] | 89 nM |
| CC(C)(C)c1cc(C(=O)NCCCCCCNc2ncnc3c2ncn3[C@@H]2O[C@H](CO)[C@@H](O)[C@H]2O)cc(C(C)(C)C)c1O | 14 nM |
| CC1(C)NC(C)(C)c2cc(Nc3ncnc4c3ncn4[C@@H]3O[C@H](CO)[C@@H](O)[C@H]3O)ccc21 | 280 nM |
| CC(C)(C)c1cc(C(=O)NCCc2ccc(Nc3ncnc4c3ncn4[C@@H]3O[C@H](CO)[C@@H](O)[C@H]3O)cc2)cc(C(C)(C)C)c1O | 84 nM |

What follows are compounds tested against T2, Adenosine receptor A1 (Rattus norvegicus) (UniProt P25099) (assay: Agonist activity at adenosine A1 receptor in embryonic rat H9C2 cell model of ischemia assessed as reduction of cell death at 10 nM). Settings: not given.
T2 sequence (whole entry): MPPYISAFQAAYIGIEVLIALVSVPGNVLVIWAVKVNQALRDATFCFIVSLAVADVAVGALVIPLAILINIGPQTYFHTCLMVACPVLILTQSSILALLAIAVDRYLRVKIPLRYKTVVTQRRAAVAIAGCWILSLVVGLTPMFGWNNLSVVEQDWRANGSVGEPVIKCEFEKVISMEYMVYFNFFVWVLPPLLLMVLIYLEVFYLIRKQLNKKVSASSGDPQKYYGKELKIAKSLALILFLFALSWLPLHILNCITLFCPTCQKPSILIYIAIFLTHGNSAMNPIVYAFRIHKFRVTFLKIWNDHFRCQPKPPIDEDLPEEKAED
Assay type: functional, cell-based
Parameters: scale not given: the % may be the effect or the level left

| Structure (SMILES) | Activity |
| --- | --- |
| CC1(C)c2ccc(C(=O)NCCc3ccc(Nc4ncnc5c4ncn5[C@@H]4O[C@H](CO)[C@@H](O)[C@H]4O)cc3)cc2C(C)(C)N1[O] | 54.7% |
| CC1(C)CC(CNc2ncnc3c2ncn3[C@@H]2O[C@H](CO)[C@@H](O)[C@H]2O)C(C)(C)N1[O] (stereo not given in full) | 84.8% |
| OC[C@H]1O[C@@H](n2cnc3c(NC4CCCC4)ncnc32)[C@H](O)[C@@H]1O | 86.2% |
| CC(C)(C)c1cc(C(=O)NCCc2ccc(Nc3ncnc4c3ncn4[C@@H]3O[C@H](CO)[C@@H](O)[C@H]3O)cc2)cc(C(C)(C)C)c1O | 73.2% |

Each compound was assayed against Adenosine receptor A2a (Homo sapiens, UniProt P29274) (assay: Binding affinity to adenosine A2A receptor). Settings: not given.
Sequence of Adenosine receptor A2a (P29274 whole entry): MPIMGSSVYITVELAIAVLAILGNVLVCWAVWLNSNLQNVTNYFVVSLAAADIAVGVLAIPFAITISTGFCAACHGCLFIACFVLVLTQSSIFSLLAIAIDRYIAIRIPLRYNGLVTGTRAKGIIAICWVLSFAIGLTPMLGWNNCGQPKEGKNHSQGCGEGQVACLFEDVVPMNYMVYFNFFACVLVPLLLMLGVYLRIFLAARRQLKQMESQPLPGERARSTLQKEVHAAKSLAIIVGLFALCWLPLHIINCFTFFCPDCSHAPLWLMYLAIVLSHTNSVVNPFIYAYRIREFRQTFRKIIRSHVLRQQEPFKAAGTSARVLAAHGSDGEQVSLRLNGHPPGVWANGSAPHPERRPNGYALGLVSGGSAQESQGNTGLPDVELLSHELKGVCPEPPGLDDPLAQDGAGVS

| Structure (SMILES) | Ki |
| --- | --- |
| CC1(C)CC(Nc2ncnc3c2ncn3[C@@H]2O[C@H](CO)[C@@H](O)[C@H]2O)CC(C)(C)N1[O] | > 10000 nM |
| CC1(C)c2ccc(C(=O)NCCc3ccc(Nc4ncnc5c4ncn5[C@@H]4O[C@H](CO)[C@@H](O)[C@H]4O)cc3)cc2C(C)(C)N1[O] | > 10000 nM |
| CC1(C)CC(CNc2ncnc3c2ncn3[C@@H]2O[C@H](CO)[C@@H](O)[C@H]2O)C(C)(C)N1[O] (stereo not given in full) | > 10000 nM |
| CC1(C)CC(Nc2ncnc3c2ncn3[C@@H]2O[C@H](CO)[C@@H](O)[C@H]2O)CC(C)(C)N1 | > 10000 nM |
| CC1(C)c2ccc(Nc3ncnc4c3ncn4[C@@H]3O[C@H](CO)[C@@H](O)[C@H]3O)cc2C(C)(C)N1[O] | > 10000 nM |
| CC1(C)c2ccc(C(=O)NCCCCCCNc3ncnc4c3ncn4[C@@H]3O[C@H](CO)[C@@H](O)[C@H]3O)cc2C(C)(C)N1[O] | > 10000 nM |
| CC(C)(C)c1cc(C(=O)NCCCCCCNc2ncnc3c2ncn3[C@@H]2O[C@H](CO)[C@@H](O)[C@H]2O)cc(C(C)(C)C)c1O | > 10000 nM |
| CC1(C)NC(C)(C)c2cc(Nc3ncnc4c3ncn4[C@@H]3O[C@H](CO)[C@@H](O)[C@H]3O)ccc21 | > 10000 nM |
| CC(C)(C)c1cc(C(=O)NCCc2ccc(Nc3ncnc4c3ncn4[C@@H]3O[C@H](CO)[C@@H](O)[C@H]3O)cc2)cc(C(C)(C)C)c1O | > 10000 nM |

These compounds were tested against T2, Adenosine receptor A1 (Rattus norvegicus) (assay: Reversal of agonistic activity at adenosine A1 receptor in embryonic rat H9C2 cell model of ischemia assessed as reduction of cardioprotective effect in presence of DPCPX A1 antagonist). Settings: Heart.
Assay type: functional, tissue-based

| Structure (SMILES) | Activity |
| --- | --- |
| CC1(C)c2ccc(C(=O)NCCc3ccc(Nc4ncnc5c4ncn5[C@@H]4O[C@H](CO)[C@@H](O)[C@H]4O)cc3)cc2C(C)(C)N1[O] | Active |
| CC1(C)CC(CNc2ncnc3c2ncn3[C@@H]2O[C@H](CO)[C@@H](O)[C@H]2O)C(C)(C)N1[O] (stereo not given in full) | Active |
| OC[C@H]1O[C@@H](n2cnc3c(NC4CCCC4)ncnc32)[C@H](O)[C@@H]1O | Active |
| CC(C)(C)c1cc(C(=O)NCCc2ccc(Nc3ncnc4c3ncn4[C@@H]3O[C@H](CO)[C@@H](O)[C@H]3O)cc2)cc(C(C)(C)C)c1O | Active |

What follows are compounds tested against T3, Adenosine receptor A1 (Homo sapiens, UniProt P30542) (assay: Binding affinity to adenosine A1 receptor). Settings: not given.
T3 sequence (P30542 whole entry): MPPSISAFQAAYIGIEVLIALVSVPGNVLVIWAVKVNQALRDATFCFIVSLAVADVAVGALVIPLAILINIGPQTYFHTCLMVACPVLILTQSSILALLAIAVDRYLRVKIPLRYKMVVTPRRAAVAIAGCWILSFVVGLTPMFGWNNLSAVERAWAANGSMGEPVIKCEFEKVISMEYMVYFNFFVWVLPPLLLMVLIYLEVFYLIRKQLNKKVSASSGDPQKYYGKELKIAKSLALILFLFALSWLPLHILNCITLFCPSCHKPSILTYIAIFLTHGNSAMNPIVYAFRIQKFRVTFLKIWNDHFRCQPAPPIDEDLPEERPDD

| Structure (SMILES) | Ki |
| --- | --- |
| CC1(C)CC(Nc2ncnc3c2ncn3[C@@H]2O[C@H](CO)[C@@H](O)[C@H]2O)CC(C)(C)N1[O] | 50 nM |
| CC1(C)c2ccc(C(=O)NCCc3ccc(Nc4ncnc5c4ncn5[C@@H]4O[C@H](CO)[C@@H](O)[C@H]4O)cc3)cc2C(C)(C)N1[O] | 7 nM |
| CC1(C)CC(CNc2ncnc3c2ncn3[C@@H]2O[C@H](CO)[C@@H](O)[C@H]2O)C(C)(C)N1[O] (stereo not given in full) | 50 nM |
| CC1(C)CC(Nc2ncnc3c2ncn3[C@@H]2O[C@H](CO)[C@@H](O)[C@H]2O)CC(C)(C)N1 | 1580 nM |
| CC1(C)c2ccc(Nc3ncnc4c3ncn4[C@@H]3O[C@H](CO)[C@@H](O)[C@H]3O)cc2C(C)(C)N1[O] | 100 nM |
| CC1(C)c2ccc(C(=O)NCCCCCCNc3ncnc4c3ncn4[C@@H]3O[C@H](CO)[C@@H](O)[C@H]3O)cc2C(C)(C)N1[O] | 15 nM |
| CC(C)(C)c1cc(C(=O)NCCCCCCNc2ncnc3c2ncn3[C@@H]2O[C@H](CO)[C@@H](O)[C@H]2O)cc(C(C)(C)C)c1O | 40 nM |
| CC1(C)NC(C)(C)c2cc(Nc3ncnc4c3ncn4[C@@H]3O[C@H](CO)[C@@H](O)[C@H]3O)ccc21 | 290 nM |
| CC(C)(C)c1cc(C(=O)NCCc2ccc(Nc3ncnc4c3ncn4[C@@H]3O[C@H](CO)[C@@H](O)[C@H]3O)cc2)cc(C(C)(C)C)c1O | 32 nM |

What follows are compounds tested against Adenosine receptors; A1 & A3 (Homo sapiens) (UniProt P30542+P0DMS8) (assay: Selectivity for adenosine A1 receptor over adenosine A3 receptor). Settings: not given.

| Structure (SMILES) | Ratio Ki |
| --- | --- |
| CC1(C)c2ccc(C(=O)NCCc3ccc(Nc4ncnc5c4ncn5[C@@H]4O[C@H](CO)[C@@H](O)[C@H]4O)cc3)cc2C(C)(C)N1[O] | 3 |

The compounds below were run against T4, Adenosine receptor A2b (Homo sapiens, UniProt P29275) (assay: Binding affinity to adenosine A2B receptor). Settings: not given.
T4 sequence (P29275 whole entry): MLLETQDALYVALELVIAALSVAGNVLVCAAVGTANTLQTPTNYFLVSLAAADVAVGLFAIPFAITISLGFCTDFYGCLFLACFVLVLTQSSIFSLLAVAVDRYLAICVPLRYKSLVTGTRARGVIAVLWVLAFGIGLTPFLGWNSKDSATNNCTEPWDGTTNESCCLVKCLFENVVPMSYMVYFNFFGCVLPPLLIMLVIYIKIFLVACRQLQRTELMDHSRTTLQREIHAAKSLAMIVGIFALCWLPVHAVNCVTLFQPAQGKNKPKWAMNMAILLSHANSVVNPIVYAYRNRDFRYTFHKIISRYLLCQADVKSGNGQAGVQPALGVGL

| Structure (SMILES) | Ki |
| --- | --- |
| CC1(C)CC(Nc2ncnc3c2ncn3[C@@H]2O[C@H](CO)[C@@H](O)[C@H]2O)CC(C)(C)N1[O] | > 10000 nM |
| CC1(C)c2ccc(C(=O)NCCc3ccc(Nc4ncnc5c4ncn5[C@@H]4O[C@H](CO)[C@@H](O)[C@H]4O)cc3)cc2C(C)(C)N1[O] | 1450 nM |
| CC1(C)CC(CNc2ncnc3c2ncn3[C@@H]2O[C@H](CO)[C@@H](O)[C@H]2O)C(C)(C)N1[O] (stereo not given in full) | > 10000 nM |
| CC1(C)CC(Nc2ncnc3c2ncn3[C@@H]2O[C@H](CO)[C@@H](O)[C@H]2O)CC(C)(C)N1 | > 10000 nM |
| CC1(C)c2ccc(Nc3ncnc4c3ncn4[C@@H]3O[C@H](CO)[C@@H](O)[C@H]3O)cc2C(C)(C)N1[O] | > 10000 nM |
| CC1(C)c2ccc(C(=O)NCCCCCCNc3ncnc4c3ncn4[C@@H]3O[C@H](CO)[C@@H](O)[C@H]3O)cc2C(C)(C)N1[O] | > 10000 nM |
| CC(C)(C)c1cc(C(=O)NCCCCCCNc2ncnc3c2ncn3[C@@H]2O[C@H](CO)[C@@H](O)[C@H]2O)cc(C(C)(C)C)c1O | > 10000 nM |
| CC1(C)NC(C)(C)c2cc(Nc3ncnc4c3ncn4[C@@H]3O[C@H](CO)[C@@H](O)[C@H]3O)ccc21 | > 10000 nM |
| CC(C)(C)c1cc(C(=O)NCCc2ccc(Nc3ncnc4c3ncn4[C@@H]3O[C@H](CO)[C@@H](O)[C@H]3O)cc2)cc(C(C)(C)C)c1O | 8580 nM |

From ChEMBL document CHEMBL1139782, “Dual acting antioxidant A1 adenosine receptor agonists” (Bioorg Med Chem Lett, 2007)
